14 compounds from US20060008800A1, “Unc-13 in the modulation of neurotransmission and secretion events” (priority 2002, published 2006) can be followed below.

“Also recorded” adds a separate entry of the source.

Assay [1] concerns the target Calmodulin (Homo sapiens, UniProt P0DP23). As to the kind of experiment: Tryptophane fluorescence emission of peptides as reporter for Calmodulin binding. The conditions noted are these: 10 μM peptide; for binding of Ca^2+/Calmodulin: excess calcium. As for the experimental part: FIG. 23: Tryptophane fluorescence emission spectra of peptides reflecting the Calmodulin binding site of rat Munc13-1 and ubMunc13-2. 10 μM of each peptide were measured in NH4Acetate 0.25 M, 1 mM EGTA. Excitation was at 290 nm.
The Excitation shutter was adjusted to 1 nm bandwith, the emission shutter to 8 nm bandwidth. Pathlenght was 3 mm. All measurements were carried out at room temperature. The exact sequences of each peptide are given in the text. […] In case of the Munc13-1 peptide, Calcium independent binding is also observed, while the binding of Munc13-2 peptides strictly requires Ca2+ for binding.
The tryptophane fluorescence of the peptides was used as a reporter for Calmodulin binding in an experimental setup that was essentially identical to the experiments described elsewhere. (O'Neil et al.). Excitation of 10 μM solutions of the peptides in 0.25 M NH4Acetate pH 8 and 1 mM EGTA at 290 nm (bandwidth 1 nm) produced a maximum in the emission (bandwidth 8 nm) of both peptides at 355 nm. […] The same experiment was performed with the peptide derived of ubMunc13-2. […] In view of the evolutionarily conservation of the motif, other members of the protein family are likely to be Calmodulin targets, too.

Assay [2] concerns Munc13-1 deficient hippocampal neurons. Kind of assay: EPSC augmentation following high frequency action potential trains in Munc13-1 deficient, Munc13-2 dependent neurons. It counts as cell-based, mouse.
The test system of assay [3] is hippocampal neurons. Kind of assay: α-latrotoxin induced mEPSC/mIPSC activity. It is filed as cell-based, mouse. As for the experimental part: (§1) Microisland culture preparation was performed according to Bekkers and Stevens (1991). The extracellular medium contained (mM): NaCl, 167; KCl, 2.4; HEPES, 10; glucose, 10; CaCl2, 4; MgCl2, 4 (340 mOsm, pH 7.3). Solutions were applied and recordings were performed as described in Rosenmund (1995). To examine synaptically activated currents, experiments were performed using recurrent synapses (autapses) or only single autaptic neuroeses on microisland cultures at room temperature (=24° C.). Pipette solutions included (mM): KCl, 120, or K-Gluconate, 125; HEPES, 10; EGTA, 1; MgCl2, 4.6; Na4ATP, 4; Creatinephosphate, 15; creatinephosphokinase 50 U/ml (320 mOsm, pH 7.3). Wild type and Munc13-1 deficient glutamatergic hippocampal neurons were used to study the characteristics of Munc13-1 and Munc13-1 independent synapses. For these purposes, individual neurons grown on microisland beds of glial cells (Bekkers, 1991) were employed. In this autaptic culture system, where isolated nerve cells make multiple synaptic contacts, so called autapses, with their own dendritic trees, spontaneous transmitter release, release of the readily releasable vesicle pool induced by hypertonic solutions, and action potential evoked release arise from the same synapse population and can be measured readily with patch clamp techniques. Autaptic responses were obtained after brief (1-2 ms) somatic depolarization. This induces an unclamped action potential that is followed by a postsynaptic response with a delay of 2-4 ms. Excitatory, glutamatergic and inhibitory, GABAergic synaptic currents were distinguished by their characteristic pharmacological and kinetic properties. Excitatory glutamatergic cells were mainly characterized because the differential equipment of presynaptic terminals formed by the same axon with Munc13 priming factors is not apparent in GABAergic neurons.
Given that neither action potentials nor hypertonic stimuli successfully evoked synaptic transmission and no mPSCs were detectable in Munc13-1/2 double deficient cells, it is possible that postsynaptic development is impaired in mutant cells. To test this directly, the spider toxin α-latrotoxin was used which allows to partially circumvent the need for priming factors in vesicular release (Augustin, 1999b). […] The average amplitude of these events was 22.7±2.4 pA (FIG. 5B). Both, mEPSC frequency and amplitude values are similar to wild type values (not shown).

The subject of assay [4] is hippocampal neurons. Kind of assay: β-phorbol ester induced potentiation of evoked synaptic currents in autaptic neuron cultures (patch clamp). It counts as cell-based, mouse. The following applies: for effect of PKC inhibitor on β-PE induced increase/potentiation of evoked EPSCs: 3 μM inhibitor, 1 μM PDBU. As for the experimental part: as §1
Design of and infection with Semliki Forest Virus was done according to published procedures (Betz, 2001; Ashery, 2000). Cells were measured 22-26 h after infection.
Routinely, cells from Munc13-1^H567K/Munc13-1^H567K mutants were analyzed 12-20 day after plating and compared to wild type control cells obtained from littermates. In some experiments we employed Munc13-1/Munc13-2 double deficient neurons as model cells to study the characteristics of the Munc13-1^H567K variant in comparison to wild type Munc13-1 following overexpression using the Semliki-Forest-Virus system. In contrast to Munc13-1 deficient glutamatergic hippocampal neurons, which still show measurable glutamate release (10% of wild type levels; Augustin, 1999b), double homozygous Munc13-1/Munc13-2 deletion mutant neurons are characterized by a complete lack of spontaneous and evoked transmitter release but can be rescued by reintroduction of Munc13 proteins. This rescue approach was persued in Munc13-1/Munc13-2 double mutant neurons instead of breeding the Munc13-1^H567K/Munc 3-1^H567K mutation into the Munc13-2 deletion mutant background because it was much faster and allowed the direct comparison of additional mutant (Betz, 2001) and wild type Munc13-1 variants in the same cultures. Autaptic responses were obtained after brief (1-2 ms) somatic depolarization. This induces an unclamped action potential that is followed by a postsynaptic response with a delay of 2-4 ms. Excitatory, glutamatergic synaptic currents were identified by their characteristic pharmacological and kinetic properties.

Assay [5] concerns the target T1, Calmodulin (Rattus norvegicus, UniProt P0DP29).
T1 construct: from tissue; host or cells: rat brain synaptosomes, extracted with 1% Igepal
As to the kind of experiment: Cosedimentation of Calmodulin from rat brain synaptosome extract with GST fusion proteins. It is filed as binding. The conditions noted are these: for Calmodulin binding in cosedimentation: 15 μg fusion protein, 3 mM Ca. As for the experimental part: GST fusion proteins containing the Calmodulin binding sites of rat Munc13-1 and ubMunc13-2 as well as GST alone were expressed in bacteria, purified and adsorbed onto glutathione beads in equal amounts for subsequent use in cosedimentation assays with rat brain synaptosome extract. Proteins that bound to the immobilized GST fusion proteins were analyzed by SDS-PAGE and immunoblotting with a specific Calmodulin antibody. Calmodulin binds specifically to wt GST-Munc13-1 (445-567) and GST-ubMunc13-2 (372-494). Calmodulin binding is completely abolished by the point mutations in the conserved tryptophanes (Position 1 in the alignment figure x).
Such a tool is a point mutation in a Munc13 protein that abolishes Calmodulin binding. On basis of the evolutionarily conservation of the tryptophane residues (FIG. 22), and since these hydrophobic residues make contact to Calmodulin, we created expression constructs that contain W464R mutation in case of Munc13-1 and a W387R mutation in case of ubMunc13-2. The effect of these mutations on Calmodulin binding was determined in cosedimentation experiments (FIG. 24). GST-tagged fragments of Munc13-1 (aa 445-567) or ubMunc13-2 (aa 372494) were expressed in bacteria and purified according to standard protocols. 15 μg of each expressed fusion protein were used to test for Calmodulin binding from 2 ml of a rat brain synaptosome extract. Rat brain synaptosomes were extracted with Igepal (1%) at a protein concentration of 2 mg/ml in a buffer containing Tris 50 mM pH 8, NaCl 150 mM, EGTA 1 mM and a cocktail of protease inhibitors. The cosedimentation experiment was performed as described prebviously (Betz, Neuron 30 […] 183-196).

Where [6] appears, read: cocktail of phosphatase inhibitors: cypermethrin 1 nM, calyculin A 10 μM, cyclosporine A 1 μM.
The mark [7] stands for this setting: 1 nM, Munc13-1/2 double deficient neurons.

As to “crakanwlrafnkvrmqlqear (CRAKANWLRAFNKVRMQLQEAR) [Munc13-1 derived peptide]”, in assay [1], the “calcium dependence of Calmodulin binding” value is reported as “partially Ca2+ independent binding” and the “binding of Ca^2+/Calmodulin” value is given as “tighter binding”. In assay [1] (equimolar Apocalmodulin, 1 mM EGTA), the “emission spectrum change on addition of Apocalmodulin (Calcium-free Calmodulin)” value was “pronounced blue shift and slight intensity increase”.
For the compound `C=C1[C@@H](O)[C@@H]2O[C@]3(CC[C@H](/C=C/[C@@H](C)[C@@H]4CC(C)=C[C@@]5(O[C@H](C[C@@](C)(O)C(=O)O)CC[C@H]5O)O4)O3)CC[C@H]2O[C@@H]1[C@@H](O)C[C@H](C)[C@H]1O[C@@]2(CCCCO2)CC[C@H]1C` [okadaic acid], the effect on augmentation entry in assay [2] (1 μM, alone) was “unable to block augmentation; also recorded: did not alter augmentation”.
For the compound `NS(=O)(=O)c1cccc2c1c([N+](=O)[O-])cc1nc(O)c(O)nc12` [NBQX], the “effect on α-latrotoxin induced mEPSC signals” value in assay [3] (Munc13-2 deficient and Munc13-1/2 double deficient neurons) is given as “blocked”.
Regarding `CN[C@@H]1C[C@H]2O[C@@](C)([C@@H]1OC)n1c3ccccc3c3c4c(c5c6ccccc6n2c5c31)C(=O)NC4` [staurosporine], the effect on augmentation result in assay [2] (100 nM) was “failed to suppress augmentation”.
Turning to `COc1ccc2c(c1)c(C1=C(c3c[nH]c4ccccc34)C(=O)NC1=O)cn2CCCN(C)C` [GÖ 6983], the “β-PE induced increase in evoked EPSCs” value in assay [4] (1 μM PDBU after preincubation for 2 min and in the presence of 3 μM GÖ 6983, wild type neurons) was 150±6 % of baseline values. In addition, in assay [4] (wild type neurons), the “effect of PKC inhibitor on β-PE induced increase/potentiation of evoked EPSCs” value is “had no effect”.
On to “cqarahwfravtkvrlqlqeis (CQARAHWFRAVTKVRLQLQEIS) [peptide derived of ubMunc13-2]”, for which, in assay [1], the “calcium dependence of Calmodulin binding” value is recorded as “absolutely dependent on the presence of calcium” and the “binding of Ca^2+/Calmodulin” value was “bound”.
For the compound `CC1(C)C(C=C(Cl)Cl)C1C(=O)OC(C#N)c1cccc(Oc2ccccc2)c1` (stereo not drawn) [cypermethrin], in assay [2] (setting [6]), the effect on augmentation entry is “ineffective in blocking augmentation; also recorded: did not alter augmentation”.
Regarding `COC[C@@H]([C@H](O)[C@H](O)C(=O)NCC[C@H](C)c1nc(/C=C/C[C@@H]2O[C@]3(C[C@@H](O)[C@@H]2C)O[C@H]([C@H](C[C@H](O)[C@H](C)[C@H](O)[C@H](C)/C=C(C)/C(C)=C/C=C/C(C)=C\C#N)OC)[C@H](OP(=O)(O)O)C3(C)C)co1)N(C)C` [calyculin A], the effect on augmentation entry was “did not alter augmentation” in assay [2] (setting [6]) and “ineffective in blocking augmentation” in assay [2] (cocktail of phosphatase inhibitors: cypermethrin 1 nM, calyculin A 10 μM, cyclosporine A 1 μM, listed as calyculinA).
In assay [3] (setting [7]), α-latrotoxin registered a mEPSC amplitude of 25.6±2.6 pA and a mEPSC-like event frequency of 0.074±0.024 Hz. The “average mEPSC amplitude” value in assay [3] (1 nM, Munc13-2 single mutant control neurons) was determined as 22.7±2.4 pA. In assay [3] (five minutes following 60 s application of 1 nM, Munc13-2 single mutant control neurons), the mEPSC frequency is recorded as 23.4±3.9 Hz.
Consider “GSTubMunc13-2 (aa 372-494): GST-tagged fragment of rat ubMunc13-2 (aa 372-494) containing the Calmodulin binding site, expressed in bacteria”, for which, in assay [5], the “Calmodulin binding in cosedimentation” value is “robustly bound”.
For the compound “GSTMunc13-1 (aa 445-567): GST-tagged fragment of rat Munc13-1 (aa 445-567) containing the Calmodulin binding site, expressed in bacteria”, in assay [5], the “calcium dependence of Calmodulin binding in cosedimentation” value is “partially independent of Ca^2+” and the “Calmodulin binding in cosedimentation” value is recorded as “robustly bound”.
For `CC(=O)OCOC(=O)CN(CCOCCOCCN(CC(=O)OCOC(C)=O)CC(=O)OCOC(C)=O)CC(=O)OCOC(C)=O` [EGTA-AM], the EPSC augmentation in assay [2] (10 Hz train, pretreatment 50 μM, 20 min) came out at 2.0±0.4 fold. The “maximal EPSC augmentation” value in assay [2] (40 Hz train, pretreatment 50 μM, 20 min) came out at 11.0±1.5 fold. Further, the “augmentation in frequency-augmentation profile” value in assay [2] (frequencies below 40 Hz, pretreatment 50 μM, 20 min) is “strongly reduced”.
With `CN(C)CCCn1cc(C2=C(c3c[nH]c4ccccc34)C(=O)NC2=O)c2ccccc21` [bisindolylmaleimide I], the “potentiation of evoked EPSCs by 1 μM PDBU after bisindolylmaleimide I pretreatment” value in assay [4] was 73±8.3%. The “effect of PKC inhibitor on β-PE induced increase/potentiation of evoked EPSCs” value in assay [4] (wild type neurons) was “does not prevent”. Also, in assay [4] (3 μM, four minute application period, wild type neurons), the “reduction of evoked EPSC responses (rundown)” value was found to be 41±11%.
`C/C1=C/C(=O)O[C@@H]2C[C@@H](CC[C@H](C)/C=C\CC1)O[C@@](O)([C@@H]1CSC(=O)N1)C2` [latrunculin B]: the effect on augmentation entry in assay [2] (10 μM) was “ineffective in blocking augmentation; also recorded: failed to affect augmentation”.
